Experimental data published in article PMC9940430, “Angiotensin converting enzyme (ACE) inhibitors activity from purified compounds Fructus Phaleria macrocarpa (Scheff) Boerl” (BMC Complementary Medicine and Therapies, 2023).
Converted amounts (≈) assume the structure as drawn.

What was measured:
[1] = molecular target: T1, angiotensin-converting enzyme (ACE) (Homo sapiens, UniProt P12821); test: In-vitro ACE inhibitor activity assay (HHL substrate, hippuric acid read at 228 nm); assay type: biochemical; settings: for inhibition at 1.25 µg/mL: ACE inhibition at a concentration of 1.25 μg/ml, read-out: inhibitory activity ± SD (%); for IC50: ACE inhibition, purified compounds and captopril, read-out: IC50 ± SD (μg/mL) (converted)
T1 sequence (P12821 30-1306, species assumed): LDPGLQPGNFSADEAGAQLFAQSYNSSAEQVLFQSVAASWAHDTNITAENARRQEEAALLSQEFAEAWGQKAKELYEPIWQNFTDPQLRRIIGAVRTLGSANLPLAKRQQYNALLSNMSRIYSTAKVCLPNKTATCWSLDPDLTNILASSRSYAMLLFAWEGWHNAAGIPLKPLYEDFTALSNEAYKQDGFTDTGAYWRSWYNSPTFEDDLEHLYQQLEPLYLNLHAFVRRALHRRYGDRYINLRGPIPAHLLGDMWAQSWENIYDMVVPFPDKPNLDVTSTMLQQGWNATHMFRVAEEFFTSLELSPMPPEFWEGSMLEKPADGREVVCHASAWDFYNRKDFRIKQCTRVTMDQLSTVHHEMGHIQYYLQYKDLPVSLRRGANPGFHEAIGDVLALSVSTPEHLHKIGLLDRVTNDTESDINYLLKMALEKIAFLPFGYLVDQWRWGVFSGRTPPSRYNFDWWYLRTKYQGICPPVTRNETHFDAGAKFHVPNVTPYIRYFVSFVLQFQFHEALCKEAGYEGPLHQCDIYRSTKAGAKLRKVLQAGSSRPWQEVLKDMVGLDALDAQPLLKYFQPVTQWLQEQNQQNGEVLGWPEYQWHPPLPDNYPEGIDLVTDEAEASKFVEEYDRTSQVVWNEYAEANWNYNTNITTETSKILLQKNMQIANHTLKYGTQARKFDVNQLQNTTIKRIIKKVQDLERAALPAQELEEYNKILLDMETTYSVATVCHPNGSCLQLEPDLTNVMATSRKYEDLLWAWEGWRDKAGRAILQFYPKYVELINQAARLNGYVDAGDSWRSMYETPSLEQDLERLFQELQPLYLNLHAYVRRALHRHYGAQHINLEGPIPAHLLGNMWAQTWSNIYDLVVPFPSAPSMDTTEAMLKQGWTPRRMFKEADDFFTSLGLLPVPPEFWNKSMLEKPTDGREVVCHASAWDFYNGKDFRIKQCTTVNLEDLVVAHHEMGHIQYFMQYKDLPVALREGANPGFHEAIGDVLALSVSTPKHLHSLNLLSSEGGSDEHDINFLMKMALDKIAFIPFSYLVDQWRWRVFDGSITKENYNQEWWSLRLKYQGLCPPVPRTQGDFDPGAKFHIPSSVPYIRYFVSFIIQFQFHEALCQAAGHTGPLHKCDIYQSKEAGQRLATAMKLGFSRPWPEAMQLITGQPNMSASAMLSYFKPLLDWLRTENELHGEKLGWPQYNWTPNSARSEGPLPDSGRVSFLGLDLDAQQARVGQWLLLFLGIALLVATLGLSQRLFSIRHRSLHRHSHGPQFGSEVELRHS
Protocol: This assay was conducted on extract, fraction and three purified compounds using captopril as a positive control at the concentration of 0,01, 0,05, 0,5, 1,25 dan 6,25 mM. In a test tube, 50 μL of the solution assay was added with 50 μL of 8 mM hippuryl-histidyl-leucine (HHL) substrate solution and pre-incubated at 37 °C for 10 minutes, followed by the addition of 100 μL of the ACE, homogenization by vortex mixer, and incubation for 90 minutes at 37 °C. Further, 250 μL of 1 N HCl was added to the mixture to stop the enzymatic reaction. The hippuric acid was produced, while the enzymatic reaction was extracted by 1.5 mL ethyl acetate and later separated from the mixture by centrifugation. The mixture was then concentrated by heating at 100 °C and dispersed in 3 mL of demineralized aqueous to have its absorbance measured by spectrophotometer at 228 nm. The hippuric acid concentration was utilized to calculate the percentage of inhibition (%), and the IC50 value was then calculated using the percentage inhibition obtained. […] An inhibition kinetics test was employed to determine the inhibition mechanism of these compounds. It was performed type of Inhibition was determined by the Lineweaver-Burk method to acquire the Michaelis-Menten kinetic constant. The Michaelis-Menten kinetic constant (Km) is assessed based on the regression equation y = a + bx, in which x is the substrate concentration [S], and y is the absorbance of the sample [18].
Additionally, most chemicals originating from plants positively affect other aspects of normal metabolism. […] The activity of ACE inhibition from medicines or plant extracts can be detected using various ACE inhibitory activity assay methods. Using a substrate of hippuryl-histidyl-leucine (HHL), we used the Cushman and Cheung approach to the data from this study. The ACE will hydrolyze HHL into hippuric acid (HA). A UV-visible spectrophotometer was used to measure the HA at a wavelength of 228 nm to describe the ACE activity. […] Most ACE inhibitory plant metabolites are peptides, protein hydrolysates, phenolics, flavonoids, terpenoids, and alkaloids.

leukemia l1210 cell line = tested on: leukemia l1210 cell line; set-up: method as in doi:10.22146/ijc.21576; settings: isolated from the bark of Mahkota Dewa; cited from earlier work
[2] = molecular target: T1, angiotensin-converting enzyme (ACE); test: Enzyme inhibition kinetics of ACE (Lineweaver-Burk plot); assay type: biochemical; settings: for type of inhibition kinetics: Lineweaver-Burk, HHL substrate 4, 6, 8, 10 and 12 μg/ml
Protocol: This assay was conducted on extract, fraction and three purified compounds using captopril as a positive control at the concentration of 0,01, 0,05, 0,5, 1,25 dan 6,25 mM. In a test tube, 50 μL of the solution assay was added with 50 μL of 8 mM hippuryl-histidyl-leucine (HHL) substrate solution and pre-incubated at 37 °C for 10 minutes, followed by the addition of 100 μL of the ACE, homogenization by vortex mixer, and incubation for 90 minutes at 37 °C. Further, 250 μL of 1 N HCl was added to the mixture to stop the enzymatic reaction. The hippuric acid was produced, while the enzymatic reaction was extracted by 1.5 mL ethyl acetate and later separated from the mixture by centrifugation. The mixture was then concentrated by heating at 100 °C and dispersed in 3 mL of demineralized aqueous to have its absorbance measured by spectrophotometer at 228 nm. The hippuric acid concentration was utilized to calculate the percentage of inhibition (%), and the IC50 value was then calculated using the percentage inhibition obtained. The IC50 value was determined as the peptide concentration in mg/mL was demanded to reduce 50% of ACE activity by regression analysis of the ACE inhibition versus ACE concentration percentage. The examination of the kinetics of enzyme inhibition was carried out at several concentrations of HHL substrates, which are 4, 6, 8, 10, and 12 μg/ml. The samples administered were compound with the lowest IC50 value. An inhibition kinetics test was employed to determine the inhibition mechanism of these compounds. It was performed type of Inhibition was determined by the Lineweaver-Burk method to acquire the Michaelis-Menten kinetic constant. The Michaelis-Menten kinetic constant (Km) is assessed based on the regression equation y = a + bx, in which x is the substrate concentration [S], and y is the absorbance of the sample [18].
Kinetic analysis of ACE inhibition was conducted by administering the Lineweaver-Burk plot (Fig. 4). […] The Lineweaver-Burk graph is generated from relationship of 1/[S] to 1/V.
The active compound with the smallest IC50 value was examined for enzyme inhibition kinetics. […] However, the Km values are different based on the calculation results of the Michaelis-Menten constant. […] Competitive inhibitors compete with the substrate for the enzyme’s active site so that the enzyme cannot produce an enzyme-substrate complex. However, when the concentration of the competitive inhibitor is greater than that of the substrate, it binds to the active binding site to form an enzyme inhibitor complex (EI), which ultimately prevents the formation of any product. In a typical enzymatic reaction, Vmax is the reaction’s maximal rate. Km, also known as the Michaelis-Menten constant, is the substrate concentration halfway between Vmax and Km. […]

| SMILES | inhibition at 1.25 µg/mL [1] [%] | IC50 [1] [µM] | IC50 (leukemia l1210 cell line) [mg/L] | Vmax, isolate versus without inhibitor ([2]; Lineweaver-Burk plot, Fig. 4) | type of inhibition kinetics ([2]; listed as compound 3) | type of inhibition kinetics ([2]; listed as mangiferin) | Km, isolate versus without inhibitor ([2]; Michaelis-Menten constant, Fig. 4) |
| --- | --- | --- | --- | --- | --- | --- | --- |
| COc1cc(O)cc(OC2OC(CO)C(O)C(O)C2O)c1C(=O)c1ccc(O)cc1 [Compound 2, 4,4′-dihydroxy-6-methoxybenzophenone-2-O-β-D-glucopyranoside] | 85.17 ± 0.23 | 0.166 | – | – | – | – | – |
| COc1cc(O)c(C(=O)c2ccc(O)cc2)c(OC2OC(CO)C(O)C(O)C2O)c1 [6,4′-dihydroxy-6-methoxybenzophenone-2-O-β-D-glucopyranoside] | – | – | 5.1 (≈ 12.1 µM) | – | – | – | – |
| O=c1c2cc(O)c(O)cc2oc2cc(O)c([C@@H]3O[C@H](CO)[C@@H](O)[C@H](O)[C@H]3O)c(O)c12 [Compound 3, mangiferin] | 86.99 ± 0.02 | 0.0592 | – | almost the same | competitively inhibiting | competitive inhibition | different |
| COc1cc(O)c(C(=O)c2ccc(O)cc2)c(OC2OC(CO)C(O)C(O)C2O)c1 [Compound 1, 6,4′-dihydroxy-4-methoxybenzophenone-2-O-β-D-glucopyranoside] | 77.48 ± 0.5 | 0.13 | – | – | – | – | – |
